{"source": "patent US12612371B2", "about": "“Sigma-1 receptor ligands and therapeutic uses thereof” (UNIVERSITE DE STRASBOURG, priority 2019, dated 2026)", "target": "T1, sigma 1 (h) (Homo sapiens, UniProt Q99720)", "T1 construct": "incubating Jurkat cell membranes (10-20 mg protein per tube) with [^3H](+) pentazocine; endogenous in cells; host or cells: Jurkat cell membranes", "T1 sequence (Q99720 whole entry)": "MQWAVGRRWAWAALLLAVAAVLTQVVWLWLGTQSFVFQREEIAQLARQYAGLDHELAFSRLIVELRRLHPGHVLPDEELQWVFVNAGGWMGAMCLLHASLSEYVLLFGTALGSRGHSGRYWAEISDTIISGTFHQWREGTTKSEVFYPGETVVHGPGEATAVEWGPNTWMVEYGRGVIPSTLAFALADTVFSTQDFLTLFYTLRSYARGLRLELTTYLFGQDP", "test": "σ1 binding assay ([3H](+)pentazocine displacement, Jurkat cell membranes)", "settings": "compound at 10 nM, [3H](+)pentazocine 15 nM, 37° C., 2 hours, read-out: Sigma-1 receptor % inhibition 10 nM", "experimental": "The σ1 binding assays were performed according to Ganapathy et al (Ganapathy, M. E. et al. (1999), J. Pharmacol. Exp. Ther., 28:251-260). The σ1 binding assay was carried out by incubating Jurkat cell membranes (10-20 mg protein per tube) with [^3H](+) pentazocine a selective S1R ligand (15 nM) and a range of concentration of tested compounds, at 37° C. for 2 hours in 5 mM tris/HCl buffer (pH=7.4). The inhibition of [3H]-(+)-pentazocine binding assay is mainly used to determine the inhibition constant (Ki) of potential SIR ligands. These assays are performed with a single concentration of [^3H]-(+)-pentazocine at a concentration near its KD and increasing concentrations of non-radioactive ligands.", "data": [{"molecule": "O=c1c(-c2ccccc2)ccnn1CCCCN1C2CCC1CC(O)C2", "note": "(stereo not shown) [compound 16, 2-(4-(3-hydroxy-8-azabicyclo[3.2.1]octan-8-yl)butyl)-4-phenylpyridazin-3(2H)-one]", "values": [{"measurement": "inhibition at 0.01 µM", "result": 4.8, "unit": "%"}]}]}
